Experimental data published in patent US5834461A, “Tricyclic benzazepine vasopressin antagonists” (American Cyanamid Company, priority 1997, dated 1998).
Blank lines part the entries; values can stand above or below the molecule they belong to.

Tests used:
[1] = biological target: vasopressin V1 receptor (rat liver plasma membranes) (Rattus norvegicus, UniProt P30560); experiment: Binding Assay to Rat Hepatic V1 Receptors; conditions: rat hepatic V1
Experimental: Rat liver plasma membranes expressing the vasopressin V1 receptor subtypes are isolated by sucrose density gradient according to the method described by Lesko et al., (1973). These membranes are quickly suspended in 50.0 mM Tris.HCl buffer, pH 7.4, containing 0.2% bovine serum albumin (BSA) and 0.1 mM phenylmethylsulfonylfluoride (PMSF) and kept frozen at -70° C. until used in subsequent binding experiments. For binding experiments, the following is added to the wells of a ninety-six well format microtiter plate: 100 μl of 100.0 mM Tris.HCl buffer containing 10.0 mM MgCl2, 0.2% heat inactivated BSA and a mixture of protease inhibitors: leupeptin, 1.0 mg %; aprotinin, 1.0 mg %; 1,10-phenanthroline,2.0 mg %; trypsin inhibitor, 10.0 mg % and 0.1 mM PMSF, 20.0 μl of [phenylalanyl-3,4,5,-^3 H] vasopressin (S.A. 45.1 Ci/mmole) at 0.8 nM, and the reaction initiated by the addition of 80 μl of tissue membranes containing 20 μg of tissue protein. The plates are kept undisturbed on the bench top at room temperature for 120 min. to reach equilibrium. Non-specific samples are assayed in the presence of 0.1 μM of the unlabeled antagonist phenylalanylvasopressin, added in 20.0 μl volume.
For test compounds, these are solubilized in 50% dimethylsulfoxide (DMSO) and added in 20.0 μl volume to a final incubation volume of 200 μl. Upon completion of binding, the content of each well is filtered off, using a Brandel® cell Harvester (Gaithersburg, Md.). The radioactivity trapped on the filter disk by the ligand-receptor complex is assessed by liquid scintillation counting in a Packard LS Counter, with an efficiency of 65% for tritium.

[2] = test system: vasopressin V1; experiment: Vasopressin V1 Antagonist Activity in Conscious Rats (vasopressin vasopressor response); format: in vivo, rat (spontaneously hypertensive rats); design: Average Change: unit not given here
Experimental: Conscious rats are restrained in a supine position with elastic tape. The area at the base of the tail is locally anesthetized by subcutaneous infiltration with 2% procaine (0.2 ml). Using aseptic technique the ventral caudal tail artery is isolated and a cannula made of PE 10 and 20 (heat-fused) tubing is passed into the lower abdominal aorta. The cannula is secured, heparinized (1000 i.u./cc), sealed and the wound closed with one or two stitches of Dexon 4-0. The caudal vein is also cannulated in the same manner for intravenous drug administration. The duration of the surgery is approximately 5 minutes. Additional local anesthesia (2% procaine or lidocaine) is provided as needed.
The animals are placed in plastic restraining cages in an upright position. The cannula is attached to a Statham P23Db pressure transducer and pulsatile blood pressure is recorded. […] The vasopressin injections are repeated 30, 60, 90, 120, 180, 240 and 300 min. later. Percentage of antagonism by the compound is calculated using the pre-drug vasopressin vasopressor response as 100%.

[3] = biological target: T1, rat kidney medullary V2 receptors (Rattus norvegicus, UniProt Q00788); experiment: Binding Assay to Rat Kidney Medullary V2 Receptors; conditions: rat kidney medullary V2
T1 construct: Medullary tissues from rat kidneys are dissected out; from tissue; host or cells: rat kidney medulla membranes
T1 sequence (Q00788 whole entry): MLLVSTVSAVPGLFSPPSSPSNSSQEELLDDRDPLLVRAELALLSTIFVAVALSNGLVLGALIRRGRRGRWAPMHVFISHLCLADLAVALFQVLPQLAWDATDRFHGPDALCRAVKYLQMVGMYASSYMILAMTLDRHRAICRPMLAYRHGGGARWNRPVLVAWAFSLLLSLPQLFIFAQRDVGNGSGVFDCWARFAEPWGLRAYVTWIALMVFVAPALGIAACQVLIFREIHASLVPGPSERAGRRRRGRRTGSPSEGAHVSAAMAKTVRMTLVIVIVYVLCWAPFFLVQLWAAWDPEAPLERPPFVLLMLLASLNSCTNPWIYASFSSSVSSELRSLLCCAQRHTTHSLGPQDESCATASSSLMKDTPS
Experimental: Medullary tissues from rat kidneys are dissected out, cut into small pieces and soaked in a […] sodium chloride solution containing 1.0 mM EDTA with many changes of the liquid phase, until the solution is clear of blood. The tissue is homogenized in a 0.25M sucrose solution containing 1.0 mM EDTA and 0.1 mM PMSF using a Potter-Elvehjem homogenizer with a teflon pestle. The homogenate is filtered through several layers (4 layers) of cheese cloth. The filtrate is rehomogenized using a dounce homogenizer, with a tight fitting pestle. The final homogenate is centrifuged at 1500×g for 15 min. The nuclear pellet is discarded and the supernatant fluid recentrifuged at 40,000×g for 30 min. The resulting pellet formed contains a dark inner part with the exterior, slightly pink. The pink outer part is suspended in a small amount of 50.0 mM Tris.HCl buffer, pH 7.4. The protein content is determined by the Lowry's method (Lowry et al., J. Biol. Chem., 1953). The membrane suspension is stored at -70° C., in 50.0 mM Tris.HCl, containing 0.2% inactivated BSA and 0.1 mM PMSF in aliquots of 1.0 ml containing 10.0 mg protein per ml of suspension until use in subsequent binding experiments.
For binding experiments, the following is added in μl volume to wells of a 96 well format of a microtiter plate: 100.0 μl of 100.0 mM Tris.HCl buffer containing 0.2% heat inactivated BSA, 10.0 mM MgCl2 and a mixture of protease inhibitors: leupeptin, 1.0 mg %; aprotinin, 1.0 mg %; 1,10-phenanthroline, 2.0 mg %; trypsin inhibitor, 10.0 mg % and 0.1 mM PMSF, 20.0 μl of [^3 H] Arginine^8, vasopressin (S.A. 75.0 Ci/mmole) at 0.8 nM and the reaction initiated by the addition of 80.0 μl of tissue membranes (200.0 μg tissue protein). The plates are left undisturbed on the bench top for 120 min to reach equilibrium. Non-specific binding is assessed in the presence of 1.0 μM of unlabeled ligand, added in 20 μl volume. For test compounds, these are solubilized in 50% dimethylsulfoxide (DMSO) and added in 20.0 μl volume to a final incubation volume of 200 μl. Upon completion of binding, the content of each well is filtered off, using a Brandel® cell Harvester (Gaithersburg, Md.). The radioactivity trapped on the filter disk by the ligand-receptor complex is assessed by liquid scintillation counting in a Packard LS Counter, with an efficiency of 65% for tritium.

[4] = test system: vasopressin V2; experiment: Vasopressin V2 Antagonist Activity in Conscious Hydrated Rats (diuretic effect); format: in vivo, normal Sprague-Dawley rats; conditions: AVP 0.4 μg/kg i.p.
Experimental: Conscious hydrated rats are treated with compounds under study from 0.1 to 100 mg/kg orally or vehicle. Two to four rats are used for each compound. One hour later, arginine vasopressin (AVP, antidiuretic hormore, ADH) dissolved in peanut oil is administered at 0.4 μg/kg intraperitoneally. Two rats in each test would not receive arginine vasopressin but only the vehicle (peanut oil) to serve as water-loading control. Twenty minutes later each rat is given 30 mL/kg of deionized water orally by gavage and is placed individually in a metabolic cage equipped with a funnel and a graduated glass cylinder to collect urine for four hours. Urine volume is measured and osmolality analyzed by use of a Fiske One-Ten osmometer (Fiske Assoc., Norwood, Mass., USA). Urinary sodium, potassium, and chloride are analyzed by use of ion-specific electrodes in a Beckman E3 (Electrolyte 3) Analyzer. In the following results, […] and decreased osmolality relative to AVP-control indicates activity.

[5] = 10 mg/kg i.v., VAS 0.01 i.u./kg, 30 min
[6] = 10 mg/kg i.v., VAS 0.02 i.u./kg, 30 min
[7] = 20 mg/kg i.v., VAS 0.01 i.u./kg, 60 min
[8] = 20 mg/kg i.v., VAS 0.01 i.u./kg, 90 min
[9] = 20 mg/kg i.v., VAS 0.01 i.u./kg, 120 min
[10] = 20 mg/kg i.v., VAS 0.01 i.u./kg, 180 min
[11] = 20 mg/kg i.v., VAS 0.01 i.u./kg, 240 min
[12] = 20 mg/kg i.v., VAS 0.01 i.u./kg, 300 min
[13] = 20 mg/kg i.v., VAS 0.02 i.u./kg, 60 min
[14] = 20 mg/kg i.v., VAS 0.02 i.u./kg, 90 min
[15] = 20 mg/kg i.v., VAS 0.02 i.u./kg, 120 min
[16] = 20 mg/kg i.v., VAS 0.02 i.u./kg, 180 min
[17] = 20 mg/kg i.v., VAS 0.02 i.u./kg, 240 min
[18] = 20 mg/kg i.v., VAS 0.02 i.u./kg, 300 min
[19] = 10 mg/kg i.v., VAS 0.01 i.u./kg, 60 min
[20] = 10 mg/kg i.v., VAS 0.01 i.u./kg, 90 min
[21] = 10 mg/kg i.v., VAS 0.01 i.u./kg, 120 min
[22] = 10 mg/kg i.v., VAS 0.01 i.u./kg, 180 min
[23] = 10 mg/kg i.v., VAS 0.01 i.u./kg, 240 min
[24] = 10 mg/kg i.v., VAS 0.01 i.u./kg, 300 min
[25] = 10 mg/kg i.v., VAS 0.02 i.u./kg, 60 min
[26] = 10 mg/kg i.v., VAS 0.02 i.u./kg, 90 min
[27] = 10 mg/kg i.v., VAS 0.02 i.u./kg, 120 min
[28] = 10 mg/kg i.v., VAS 0.02 i.u./kg, 180 min
[29] = 10 mg/kg i.v., VAS 0.02 i.u./kg, 240 min
[30] = 10 mg/kg i.v., VAS 0.02 i.u./kg, 300 min
[31] = 30 mg/kg p.o., VAS 0.01 i.u./kg, 30 min
[32] = 30 mg/kg p.o., VAS 0.01 i.u./kg, 60 min
[33] = 30 mg/kg p.o., VAS 0.01 i.u./kg, 90 min
[34] = 30 mg/kg p.o., VAS 0.01 i.u./kg, 120 min
[35] = 30 mg/kg p.o., VAS 0.01 i.u./kg, 180 min
[36] = 30 mg/kg p.o., VAS 0.01 i.u./kg, 240 min
[37] = 30 mg/kg p.o., VAS 0.02 i.u./kg, 30 min
[38] = 30 mg/kg p.o., VAS 0.02 i.u./kg, 60 min
[39] = 30 mg/kg p.o., VAS 0.02 i.u./kg, 90 min
[40] = 30 mg/kg p.o., VAS 0.02 i.u./kg, 120 min
[41] = 30 mg/kg p.o., VAS 0.02 i.u./kg, 180 min
[42] = 30 mg/kg p.o., VAS 0.02 i.u./kg, 240 min

vasopressin V1 receptor (rat liver plasma membranes), sequence (P30560 whole entry): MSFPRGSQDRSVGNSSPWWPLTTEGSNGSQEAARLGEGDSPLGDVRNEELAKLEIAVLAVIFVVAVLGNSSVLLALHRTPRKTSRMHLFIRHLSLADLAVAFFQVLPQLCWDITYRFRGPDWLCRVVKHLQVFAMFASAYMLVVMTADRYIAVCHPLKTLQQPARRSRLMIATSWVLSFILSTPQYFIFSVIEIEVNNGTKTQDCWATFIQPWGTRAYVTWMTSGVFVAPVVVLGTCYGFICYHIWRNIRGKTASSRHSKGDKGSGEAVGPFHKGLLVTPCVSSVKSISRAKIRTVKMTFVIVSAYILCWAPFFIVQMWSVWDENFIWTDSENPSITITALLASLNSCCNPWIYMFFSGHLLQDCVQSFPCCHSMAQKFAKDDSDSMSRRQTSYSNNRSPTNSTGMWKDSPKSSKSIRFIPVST

IC50 [1]: 170 nM
IC50 [3]: 64 nM
SMILES: O=C(Nc1ccc(C(=O)N2Cc3ccccc3Cc3ccccc32)cc1)c1ccc(Cl)cc1Cl [Example 10, N-[4-[(6,11-Dihydro-5H-dibenz[b,e]azepin-5-yl)carbonyl]phenyl]2,4-dichlorobenzamide]
Average Change [2, 5]: 37.5
Inhibition [2, 5]: -25%
Average Change [2, 6]: 64.5
Inhibition [2, 6]: -26%
Average Change [2, 7]: 14.5
Inhibition [2, 7]: 52%
Average Change [2, 8]: 16
Inhibition [2, 8]: 47%
Average Change [2, 9]: 13.5
Inhibition [2, 9]: 55%
Average Change [2, 10]: 25.5
Inhibition [2, 10]: 15%
Average Change [2, 11]: 22.5
Inhibition [2, 11]: 25%
Average Change [2, 12]: 24.5
Inhibition [2, 12]: 18%
Average Change [2, 13]: 22.5
Inhibition [2, 13]: 56%
Average Change [2, 14]: 23
Inhibition [2, 14]: 55%
Average Change [2, 15]: 22
Inhibition [2, 15]: 57%
Average Change [2, 16]: 29.5
Inhibition [2, 16]: 42%
Average Change [2, 17]: 34.5
Inhibition [2, 17]: 32%
Average Change [2, 18]: 34
Inhibition [2, 18]: 33%
Osmolality ([4]; 10 mg/kg orally): 1023 mOsm/kg
Urine Volume ([4]; 10 mg/kg orally): 7.1 ml/4 hrs.

IC50 [1]: 57 nM
IC50 [3]: 66 nM
SMILES: O=C(Nc1ccc(C(=O)N2Cc3ccccc3Cc3ccccc32)cc1)c1ccccc1Cl [Example 14, N-[4-[(6,11-Dihydro-5H-dibenz[b,e]azepin-5-yl)-carbonyl]phenyl]-2-chlorobenzamide]
Average Change [2, 5]: 11
Inhibition [2, 5]: 51%
Average Change [2, 19]: 12
Inhibition [2, 19]: 47%
Average Change [2, 20]: 13.5
Inhibition [2, 20]: 40%
Average Change [2, 21]: 16
Inhibition [2, 21]: 29%
Average Change [2, 22]: 21.5
Inhibition [2, 22]: 4%
Average Change [2, 23]: 26.5
Inhibition [2, 23]: -18%
Average Change [2, 24]: 24.5
Inhibition [2, 24]: -9%
Average Change [2, 6]: 23
Inhibition [2, 6]: 56%
Average Change [2, 25]: 22
Inhibition [2, 25]: 58%
Average Change [2, 26]: 29.5
Inhibition [2, 26]: 43%
Average Change [2, 27]: 23.5
Inhibition [2, 27]: 55%
Average Change [2, 28]: 30.5
Inhibition [2, 28]: 41%
Average Change [2, 29]: 32
Inhibition [2, 29]: 38%
Average Change [2, 30]: 33
Inhibition [2, 30]: 37%
Osmolality ([4]; 30 mg/kg orally): 739 mOsm/kg
Urine Volume ([4]; 30 mg/kg orally): 13.1 ml/4 hrs.

IC50 [1]: 53 nM
IC50 [3]: 65 nM
SMILES: O=C(Cc1ccccc1Cl)Nc1ccc(C(=O)N2Cc3ccccc3Cc3ccccc32)cc1 [Example 16, 2-Chloro-N-[4-[(6,11-dihydro-5H-dibenz[b,e]azepin-5-yl)carbonyl]phenyl]benzeneacetamide]
Average Change [2, 31]: 25
Inhibition [2, 31]: 15%
Average Change [2, 32]: 30.5
Inhibition [2, 32]: -3%
Average Change [2, 33]: 28.5
Inhibition [2, 33]: 3%
Average Change [2, 34]: 23.5
Inhibition [2, 34]: 20%
Average Change [2, 35]: 30.5
Inhibition [2, 35]: -3%
Average Change [2, 36]: 30
Inhibition [2, 36]: -2%
Average Change [2, 37]: 27.5
Inhibition [2, 37]: 17%
Average Change [2, 38]: 29
Inhibition [2, 38]: 12%
Average Change [2, 39]: 40.5
Inhibition [2, 39]: -23%
Average Change [2, 40]: 29.5
Inhibition [2, 40]: 11%
Average Change [2, 41]: 26
Inhibition [2, 41]: 21%
Average Change [2, 42]: 30
Inhibition [2, 42]: 9%
Osmolality ([4]; 30 mg/kg orally): 1257 mOsm/kg
Urine Volume ([4]; 30 mg/kg orally): 7.2 ml/4 hrs.
